From patent US9913811B2, “Hydroxynaphthoquinone compounds for treatment of non-small cell lung cancer” (Macau University of Science and Technology, priority 2016, dated 2018)

Assays:
Assay type in all cases: cell-based
[1] = tested on: H1650 cells; assay: Annexin-V/PI apoptosis assay by flow cytometry, H1650
Experimental: (§1) Apoptosis assay was performed on gefitinib-resistant H1650 and H1975 cells. The cells (1.0×10^5 cells/well) were allowed to attach to a 6-well plate for 24 h, and the cells were treated with the various concentrations of the compound of Formula (IIa) for additional 24 h. At the end of incubation, the cells were harvested by trypsinization and washed twice with ice-cold PBS. After centrifugation and removal of the supernatants, cell pellets were resuspended in 100 μL 1×Annexin-binding buffer, 2 μL Annexin-V FITC and 2 μL PI (100 μg/ml) were added and incubated in the dark at room temperature for 15 min before further addition of 400 μL of 1×Annexin-binding buffer. The stained cells were analyzed quantitatively using a flow cytometer (BD Biosciences, San Jose, Calif., USA). Data were analyzed by Flow Jo software. FIG. 2A to 2E show fluorescence images of H1650 cells and FIG. 3A to 3E show fluorescence images of H1975 cells having been treated with the compound of Formula (IIa) at 1 μM, 2 μM, 3 μM and 4 μM; and DMSO (control, negative control).
(§2) Apoptosis assay and analysis with flow cytometer was performed as described in Example 1B with H1650 and H1975 cells and treatment with 4 μM of the compound of Formula (IIa) for 30 min in the presence or absence of N-acetylcystein (NAC) or treatment with DMSO (control, negative control). […]

[2] = tested on: cleaved Caspase-3 and cleaved PARP in H1650 cells; assay: Western blot of cleaved caspase-3 and cleaved PARP, H1650; details: 24 h
Experimental: (§3) The H1650 or H1975 cells were planted on 6-well plates, allowed to attach for 24 h, and treated with 4 μM of the compound of Formula (IIa) with or without NAC (10 mM) for 24 h. Cells were washed twice with cold PBS then lysed in RIPA lysis buffer containing protease and phosphatase inhibitors. Protein concentration of the cell lysates was measured using the Bio-Rad protein Assay kit (Bio-Rad, 7 Philadelphia, Pa., USA). After equalizing the protein concentrations of the samples, 5× laemmli buffer was added and the samples were boiled at 100° C. for 5 min. Equal amounts of protein samples (30 μg) were subjected to SDS-PAGE of a 10% gel. The separated proteins were transferred to a nitrocellulose (NC) membrane, which was then exposed to 5% non-fat dried milk in TBS containing 0.1% Tween (0.1% TBST) for 1 h at room temperature, followed by overnight incubation at 4° C. with primary antibodies. After washing three times by TBST (5 mins/time), the membranes were incubated for 1 h at room temperature with secondary fluorescent antibodies (1:10000 dilutions) to rabbit or mouse. The signal intensity of the membranes was detected by an LI-COR Odessy scanner (Belfast, Me., USA).

[3] = tested on: cleaved Caspase-3 and cleaved PARP in H1975 cells; assay: Western blot of cleaved caspase-3 and cleaved PARP, H1975; details: 24 h
Experimental: as §3

[4] = tested on: H1975 cells; assay: Annexin-V/PI apoptosis assay by flow cytometry, H1975
Experimental: as §1, §2

[5] = tested on: H1975 cells; assay: ROS generation, H1975; details: 4 μM, 30 min treatment
Experimental: (§4) Apoptosis assay and analysis with flow cytometer was performed as described in Example 1B with H1650 and H1975 cells and treatment with 4 μM of the compound of Formula (IIa) for 30 min in the presence or absence of N-acetylcystein (NAC) or treatment with DMSO (control, negative control). FIG. 4A to 4D show fluorescence images of H1650 cells and FIG. 5A to 5D show fluorescence images of H1975 cells.
(§5) ROS generation was considered as the direct cause of apoptosis induced by the compound of Formula (IIa). After 30 min treatment of the H1650 and H1975 cells, the intensity of ROS increased more than 10-fold.

[6] = molecular target: T1, EGFR (Homo sapiens, UniProt P00533, L858R/T790M); assay: Western blot of EGFR phosphorylation, H1975; details: H1975 cells, 1, 2, 3, 4 μM, 2 h
T1 construct: H1975 cells were planted on 6-well plate, allowed to attach for 24 h, and treated; host or cells: H1975 NSCLC adenocarcinoma cells
Experimental: H1975 cells were planted on 6-well plate, allowed to attach for 24 h, and treated with the various concentrations of the compound of Formula (Ic) for 2 h. Cells were washed twice with cold PBS then lysed in RIPA lysis buffer containing protease and phosphatase inhibitors. Protein concentration of the cell lysates was measured using the Bio-Rad protein Assay kit (Bio-Rad, 7 Philadelphia, Pa., USA). After equalizing the protein concentrations of the samples, 5× laemmli buffer was added and the samples were boiled at 100° C. for 5 min. Equal amounts of protein samples (30 μg) were subjected to SDS-PAGE of a 10% gel. The separated proteins were transferred to a nitrocellulose (NC) membrane, which was then exposed to 5% non-fat dried milk in TBS containing 0.1% Tween (0.1% TBST) for 1 h at room temperature, followed by overnight incubation at 4° C. with primary antibodies. After washing three times by TBST (5 mins/time), the membranes were incubated for 1 h at room temperature with the secondary fluorescent antibodies (1:10000 dilutions) to rabbit or mouse. The signal intensity of the membranes was detected by an LI-COR Odessy scanner (Belfast, Me., USA). Actin was used as the loading control for normalization.

[7] = tested on: CCD-19LU; assay: MTT cytotoxicity assay, non-cancerous lung fibroblast cells; details: 24 h treatment
Experimental: To show the highly cytotoxic properties of the present compound of Formula (IIa), H1650, HCC827 and H1975 NSCLC cells and non-cancerous lung fibroblast cells (CCD-19LU) were treated with the compound of Formula (IIa) and respective effects were observed. H1650 cells are adenocarcinoma cells harboring an E746-A750del deletion in exon 19 and other driver mutation genes which lead to a resistance against gefitinib. HCC827 cells are adenocarcinoma cells harboring high level EGFR amplification and an E746-A750del deletion in exon 19 without gefitinib-resistance. H1975 cells are adenocarcinoma cells harboring L858R substitution in exon 21 and a T790M substitution in exon 20 which is directly associated with resistance against gefitinib. The cells were obtained from the American Type Culture Collection (ATCC) and cultured in environment of 5% CO2 at 37° C. in RPMI-1640 medium supplemented with 10% fetal bovine serum (FBS), 100 units/mL penicillin, and 100 μg/mL streptomycin. The compound of Formula (IIa) was dissolved in DMSO. […] The absorbance was measured at 570 nm by a microplate reader (Tecan, Morrisville, N.C., USA).
The cell viability was calculated relative to untreated controls, with results based on at least three independent experiments.

[8] = tested on: H1650 cells; assay: ROS generation, H1650; details: 4 μM, 30 min treatment
Experimental: as §4, §5

[9] = 4 μM Formula (IIa) with 10 mM NAC

| SMILES | effect of NAC on apoptosis induced by the compound of Formula (IIa) ([1]; H1650 cells, 4 μM Formula (IIa) in presence of NAC) | effect of NAC on apoptosis (cleaved Caspase-3, cleaved PARP) induced by Formula (IIa) [2, 9] | effect of NAC on apoptosis (cleaved Caspase-3, cleaved PARP) induced by Formula (IIa) [3, 9] | effect of NAC on apoptosis induced by the compound of Formula (IIa) ([4]; H1975 cells, 4 μM Formula (IIa) in presence of NAC) | induction of apoptosis ([1]; H1650 cells, 1, 2, 3, 4 μM, 24 h) | cleaved Caspase-3 and cleaved PARP expression ([2]; 4 μM) | increase of intensity of ROS [5] | cleaved Caspase-3 and cleaved PARP expression ([3]; 4 μM) | EGFR phosphorylation (tyrosine 1068, 1173, 1045) [6] | cytotoxicity on non-cancerous lung fibroblast cells compared with NSCLC cells [7] | induction of apoptosis ([4]; H1975 cells, 1, 2, 3, 4 μM, 24 h) | increase of intensity of ROS [8] |
| --- | --- | --- | --- | --- | --- | --- | --- | --- | --- | --- | --- | --- |
| CC(=O)N[C@@H](CS)C(=O)O [NAC, N-acetylcystein, reference compound] | completely blocked the apoptosis | blocked | blocked | completely blocked the apoptosis |  |  |  |  |  |  |  |  |
| CC(C)=CC[C@@H](O)C1=CC(=O)c2c(O)ccc(O)c2C1=O [Formula (IIa), shikonin] |  |  |  |  | significantly induced apoptosis | increase in cleaved Caspase-3 and cleaved Poly(ADP-ribose) Polymerase (PARP) | more than 10 fold | increase in cleaved Caspase-3 and cleaved Poly(ADP-ribose) Polymerase (PARP) | suppress EGFR phosphorylation | much lower cytotoxicity | significantly induced apoptosis | more than 10 fold |
